According to BindingDB's records for doi:10.1021/jm00170a007 (Pfizer, 1990):
pIC50: −log10 of the molar value.

Legend:
[1] = inhibitory activity against 5-hydroxytryptamine 1C receptor of pig choroid plexus using [3H]mesulergine as the radioligand
[2] = Compound was evaluated for its inhibitory activity against 5-hydroxytryptamine 1D receptor of bovine caudate using [3H]5-HT as the radioligand

FC(F)(F)c1ccc2c(c1)nc(N1CCNCC1)c1cccn12 [4-Piperazin-1-yl-7-trifluoromethyl-pyrrolo[1,2-a]quinoxaline(desmethyl-CGS-12066B)]
pIC50 [1]: 5.00 | pIC50 [2]: 6.72
